According to patent publication US20130123276A1, “USE OF TELAPREVIR AND RELATED COMPOUNDS IN ATHEROSCLEROSIS, HEART FAILURE, RENAL DISEASES, LIVER DISEASES OR INFLAMMATORY DISEASES” (priority 2011, published 2013):

Target: T1, Recombinant human cathepsin A (Homo sapiens, UniProt P10619)
T1 construct: Recombinant human cathepsin A (residues 29-480, with a C-terminal 10-His tag); 10-His (C); purchased R&D Systems 1049-SE
T1 sequence (P10619 29-326 limits assumed): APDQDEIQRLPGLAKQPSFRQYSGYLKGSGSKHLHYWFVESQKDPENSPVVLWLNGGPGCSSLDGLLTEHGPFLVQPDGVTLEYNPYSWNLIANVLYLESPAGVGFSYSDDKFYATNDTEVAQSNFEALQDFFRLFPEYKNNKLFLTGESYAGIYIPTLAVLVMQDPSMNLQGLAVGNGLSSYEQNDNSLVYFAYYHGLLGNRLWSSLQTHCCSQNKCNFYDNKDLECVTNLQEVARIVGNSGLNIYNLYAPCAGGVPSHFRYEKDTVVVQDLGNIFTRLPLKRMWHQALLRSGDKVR
T1 sequence (P10619 327-480 limits assumed): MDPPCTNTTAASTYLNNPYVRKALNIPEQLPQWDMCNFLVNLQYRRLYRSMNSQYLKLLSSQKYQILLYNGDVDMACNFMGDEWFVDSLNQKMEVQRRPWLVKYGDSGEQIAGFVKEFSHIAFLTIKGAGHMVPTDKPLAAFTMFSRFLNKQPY
Assay: Cathepsin A inhibitory activity
Assay type: biochemical
Settings: activated recombinant human cathepsin A, Bodipy FL-labeled bradykinin substrate, pH 5.5, microfluidic capillary electrophoresis
Method: Recombinant human cathepsin A (residues 29-480, with a C-terminal 10-His tag; R&D Systems, # 1049-SE) was proteolytically activated with recombinant human cathepsin L (R&D Systems, # 952-CY). Briefly, cathepsin A was incubated at 10 μg/ml with cathepsin L at 1 μg/ml in activation buffer (25 mM 2-(morpholin-4-yl)-ethanesulfonic acid (MES), pH 6.0, containing 5 mM dithiothreitol (DTT)) for 15 min at 37° C. Cathepsin L activity was then stopped by the addition of the cysteine protease inhibitor E-64 (N-(trans-epoxysuccinyl)-L-leucine-4-guanidinobutylamide; Sigma-Aldrich, # E3132; dissolved in activation buffer/DMSO) to a final concentration of 10 μM.
The activated cathepsin A was diluted in assay buffer (25 mM MES, pH 5.5, containing 5 mM DTT) and mixed with the test compound (dissolved in assay buffer containing (v/v) 3% DMSO) or, in the control experiments, with the vehicle in a multiple assay plate. […]
Uncleaved substrate and product were then separated by a microfluidic capillary electrophoresis on a LabChip® 3000 Drug Discovery System (12-Sipper-Chip; Caliper Life Sciences) and quantified by determination of the respective peak areas. Substrate turnover was calculated by dividing product peak area by the sum of substrate and product peak areas, and the enzyme activity and the inhibitory effect of the test compound thus quantified. […]

IC50: 100 nM
Structure (SMILES): CCC[C@H](NC(=O)[C@@H]1[C@H]2CCC[C@H]2CN1C(=O)[C@@H](NC(=O)[C@@H](NC(=O)c1cnccn1)C1CCCCC1)C(C)(C)C)C(=O)C(=O)NC1CC1 [Telaprevir, (1 S,3aR,6aS)-2-[(2S)-2-[[(2S)-2-Cyclohexyl-2-(pyrazine-2-carbonylamino)acetyl]amino]-3,3-dimethylbutanoyl]-N-[(3S)-1-(cyclopropylamino)-1,2-dioxohexan-3-yl]-3,3a,4,5,6,6a-hexahydro-1H-cyclopenta[c]pyrrole-1-carboxamide]
